# PubChem BioAssay (NCI)
#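 GI50 is the concentration that inhibits growth by half. TGI: total growth inhibition.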
# Experiments:
# Test in all cases: NCI anticancer screen, dose series, 384-well format
# [1] = test system: ACHN renal
# [2] = test system: K-562 leukemia
# [3] = test system: RPMI-8226 leukemia
# [4] = test system: NCI-H23 lung
# [5] = test system: BT-549 breast
# [6] = test system: MDA-MB-435 melanoma
# [7] = test system: KM12 colon
# [8] = test system: HT29 colon
# [9] = test system: A498 renal
# [10] = test system: NCI/ADR-RES ovarian
# [11] = test system: SNB-19 CNS
# [12] = test system: MDA-MB-231 breast
# [13] = test system: U251 glioblastoma
# [14] = test system: SN12C renal
# [15] = test system: M14 melanoma
# [16] = test system: SF-268 CNS
# [17] = test system: HCC-2998 colon
# [18] = test system: CCRF-CEM leukemia
# [19] = test system: HOP-62 NSCLC
# [20] = test system: SR leukemia
# [21] = test system: SW-620 colon
# [22] = test system: PC-3 prostate
# [23] = test system: SF-295 CNS
# [24] = test system: HCT-15 colon
# [25] = test system: HL-60(TB) leukemia
# [26] = test system: A549 NSCLC
# [27] = test system: NCI-H322M lung
# [28] = test system: SK-OV-3 ovarian
# [29] = test system: SK-MEL-28 melanoma
# [30] = test system: LOX IMVI melanoma
# [31] = test system: OVCAR-8 ovarian
# [32] = test system: OVCAR-5 ovarian
# [33] = test system: UACC-257 melanoma
# [34] = test system: UACC-62 melanoma
# [35] = test system: NCI-H460 NSCLC
# [36] = test system: SNB-75 CNS
# [37] = test system: CAKI-1 renal
# [38] = test system: OVCAR-4 ovarian
# [39] = test system: UO-31 renal
# [40] = test system: MCF7 breast
# [41] = test system: EKVX NSCLC
# [42] = test system: SF-539 CNS
# [43] = test system: DU-145 prostate
# [44] = test system: HOP-92 NSCLC
# [45] = test system: NCI-H226 lung
# [46] = test system: IGROV1 ovarian
# [47] = test system: MOLT-4 leukemia
# [48] = test system: SK-MEL-5 melanoma
# [49] = test system: 786-0 renal
# [50] = test system: TK-10 renal
# [51] = test system: T-47D breast
# [52] = test system: MALME-3M melanoma
# [53] = test system: MDA-MB-468 breast
# [54] = test system: NCI-H522 lung
# [55] = test system: RXF 393 renal
# [56] = test system: COLO 205 colon
# [57] = test system: OVCAR-3 ovarian
# [58] = test system: HS 578T breast
smiles,measurement,setting,value
NC(N)=Nc1ccc(-n2nc(C(F)(F)F)cc2-c2ccc3c(ccc4ccccc43)c2)cc1,GI50,[1],1840 nM
same,TGI,[1],3250 nM
same,GI50,[2],1570 nM
same,TGI,[2],2920 nM
same,GI50,[3],1310 nM
same,TGI,[3],2590 nM
same,GI50,[4],1630 nM
same,TGI,[4],2990 nM
same,GI50,[5],1750 nM
same,TGI,[5],3140 nM
same,GI50,[6],1850 nM
same,TGI,[6],3260 nM
same,GI50,[7],1470 nM
same,TGI,[7],2800 nM
same,GI50,[8],1740 nM
same,TGI,[8],3140 nM
same,GI50,[9],1550 nM
same,TGI,[9],2900 nM
same,GI50,[10],2380 nM
same,TGI,[10],4830 nM
same,GI50,[11],1770 nM
same,TGI,[11],3170 nM
same,GI50,[12],1570 nM
same,TGI,[12],2930 nM
same,GI50,[13],1840 nM
same,TGI,[13],3270 nM
same,GI50,[14],1810 nM
same,TGI,[14],3220 nM
same,GI50,[15],1740 nM
same,TGI,[15],3140 nM
same,GI50,[16],1830 nM
same,TGI,[16],3240 nM
same,GI50,[17],736 nM
same,TGI,[17],2030 nM
same,GI50,[18],1110 nM
same,TGI,[18],2310 nM
same,GI50,[19],1770 nM
same,TGI,[19],3170 nM
same,GI50,[20],765 nM
same,TGI,[20],2020 nM
same,GI50,[21],1820 nM
same,TGI,[21],3230 nM
same,GI50,[22],1720 nM
same,TGI,[22],3110 nM
same,GI50,[23],1840 nM
same,TGI,[23],3250 nM
same,GI50,[24],1530 nM
same,TGI,[24],2890 nM
same,GI50,[25],838 nM
same,TGI,[25],2070 nM
same,GI50,[26],1740 nM
same,TGI,[26],3130 nM
same,GI50,[27],1650 nM
same,TGI,[27],3020 nM
same,GI50,[28],1620 nM
same,TGI,[28],2980 nM
same,GI50,[29],1780 nM
same,TGI,[29],3170 nM
same,GI50,[30],1530 nM
same,TGI,[30],2870 nM
same,GI50,[31],1830 nM
same,TGI,[31],3230 nM
same,GI50,[32],1880 nM
same,TGI,[32],3290 nM
same,GI50,[33],1950 nM
same,TGI,[33],3370 nM
same,GI50,[34],1740 nM
same,TGI,[34],3130 nM
same,GI50,[35],1690 nM
same,TGI,[35],3070 nM
same,GI50,[36],1760 nM
same,TGI,[36],3150 nM
same,GI50,[37],1740 nM
same,TGI,[37],3140 nM
same,GI50,[38],1610 nM
same,TGI,[38],2970 nM
same,GI50,[39],1780 nM
same,TGI,[39],3200 nM
same,GI50,[40],1250 nM
same,TGI,[40],2520 nM
same,GI50,[41],1720 nM
same,TGI,[41],3100 nM
same,GI50,[42],1860 nM
same,TGI,[42],3270 nM
same,GI50,[43],1850 nM
same,TGI,[43],3270 nM
same,GI50,[44],1390 nM
same,TGI,[44],2700 nM
same,GI50,[45],1640 nM
same,TGI,[45],3010 nM
same,GI50,[46],1820 nM
same,TGI,[46],3230 nM
same,GI50,[47],1440 nM
same,TGI,[47],2750 nM
same,GI50,[48],1830 nM
same,TGI,[48],3220 nM
same,GI50,[49],1620 nM
same,TGI,[49],2980 nM
same,GI50,[50],1810 nM
same,TGI,[50],3210 nM
same,GI50,[51],1760 nM
same,TGI,[51],3150 nM
same,GI50,[52],1650 nM
same,TGI,[52],3020 nM
same,GI50,[53],2020 nM
same,TGI,[53],3450 nM
same,GI50,[54],1780 nM
same,TGI,[54],3180 nM
same,GI50,[55],1590 nM
same,TGI,[55],2930 nM
same,GI50,[56],1300 nM
same,TGI,[56],2580 nM
same,GI50,[57],1840 nM
same,TGI,[57],3260 nM
same,GI50,[58],1770 nM
same,TGI,[58],3160 nM
